System: PDC 899932-113-R3-J6 complex spheroid viability
Experiment: Anticancer human tumor 899932-113-R3-J6-PDC patient-derived melanoma cell line growth inhibition [RAS]
Details: for viability, T/C: stronger effect = lower value; active means viability on the fitted dose curve at most 10% of control; inactive means the rest
Outline: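 Multi-cell-type spheroids: tumor cells plus HUVEC endothelial cells and mesenchymal stem cells. RAS-pathway inhibitors were combined with targeted agents, each dosed in half-log steps down from clinical Cmax, or from 10 microM when Cmax was unknown.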

[1] = curve of first compound, second compound 0.00316 µM
[2] = curve of first compound, second compound 0.01 µM
[3] = curve of first compound, second compound 0.0316 µM
[4] = curve of first compound, second compound 0.1 µM
[5] = curve of first compound, second compound 0.316 µM
[6] = curve of first compound, second compound 1 µM
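Wherever viability, T/C is given: spheroids exposed to agents for seven days before readout; 100% = DMSO vehicle control wells.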

CC1(C)CCC(Nc2ncc(C(F)(F)F)c(-c3c[nH]c4c(P(C)(C)=O)c(C#N)ccc34)n2)CN1 (stereo unspecified) + C=CC(=O)N1CCN(c2nc(OCC3CCCN3C)nc3c(F)c(-c4nc(N)cc(C)c4C(F)(F)F)c(Cl)cc23)C(C)C1
8.77 nM: IC50 [1]
active: viability, T/C (second compound 0.00316 µM, first compound 0.3 µM) 8.68% | viability, T/C (second compound 0.0316 µM, first compound 0.3 µM) 8.82% | viability, T/C (second compound 0.1 µM, first compound 0.3 µM) 8.6% | viability, T/C (second compound 0.316 µM, first compound 0.3 µM) 9.67% | viability, T/C (second compound 1 µM, first compound 0.3 µM) 10.9%
9.74 nM: IC50 [2]
8.03 nM: IC50 [6]
8.56 nM: IC50 [4]
11 nM: IC50 [3]
9.45 nM: IC50 [5]
inactive: viability, T/C (second compound 0.00316 µM, first compound 0.000949 µM) 105% | viability, T/C (second compound 0.00316 µM, first compound 0.003 µM) 73% | viability, T/C (second compound 0.00316 µM, first compound 0.00949 µM) 51.5% | viability, T/C (second compound 0.00316 µM, first compound 0.03 µM) 25.9% | viability, T/C (second compound 0.00316 µM, first compound 0.0949 µM) 16.4% | viability, T/C (second compound 0.01 µM, first compound 0.000949 µM) 96.8% | viability, T/C (second compound 0.01 µM, first compound 0.003 µM) 79.2% | viability, T/C (second compound 0.01 µM, first compound 0.00949 µM) 48% | viability, T/C (second compound 0.01 µM, first compound 0.03 µM) 30.5% | viability, T/C (second compound 0.01 µM, first compound 0.0949 µM) 16.4% | viability, T/C (second compound 0.01 µM, first compound 0.3 µM) 11.2% | viability, T/C (second compound 0.0316 µM, first compound 0.000949 µM) 102% | viability, T/C (second compound 0.0316 µM, first compound 0.003 µM) 75.3% | viability, T/C (second compound 0.0316 µM, first compound 0.00949 µM) 56.3% | viability, T/C (second compound 0.0316 µM, first compound 0.03 µM) 29.9% | viability, T/C (second compound 0.0316 µM, first compound 0.0949 µM) 15.4% | viability, T/C (second compound 0.1 µM, first compound 0.000949 µM) 94.8% | viability, T/C (second compound 0.1 µM, first compound 0.003 µM) 68% | viability, T/C (second compound 0.1 µM, first compound 0.00949 µM) 51.4% | viability, T/C (second compound 0.1 µM, first compound 0.03 µM) 28.1% | viability, T/C (second compound 0.1 µM, first compound 0.0949 µM) 16.4% | viability, T/C (second compound 0.316 µM, first compound 0.000949 µM) 107% | viability, T/C (second compound 0.316 µM, first compound 0.003 µM) 73.9% | viability, T/C (second compound 0.316 µM, first compound 0.00949 µM) 52.9% | viability, T/C (second compound 0.316 µM, first compound 0.03 µM) 30.4% | viability, T/C (second compound 0.316 µM, first compound 0.0949 µM) 12.2% | viability, T/C (second compound 1 µM, first compound 0.000949 µM) 95.1% | viability, T/C (second compound 1 µM, first compound 0.003 µM) 71.7% | viability, T/C (second compound 1 µM, first compound 0.00949 µM) 47.4% | viability, T/C (second compound 1 µM, first compound 0.03 µM) 25.7% | viability, T/C (second compound 1 µM, first compound 0.0949 µM) 10.5%

C=CC(=O)Nc1cc(Nc2nccc(-c3cn(C)c4ccccc34)n2)c(OC)cc1N(C)CCN(C)C + C=CC(=O)N1CCN(c2nc(OCC3CCCN3C)nc3c(F)c(-c4nc(N)cc(C)c4C(F)(F)F)c(Cl)cc23)C(C)C1
> 1000 nM: IC50 [1] | IC50 [2] | IC50 [3] | IC50 [4] | IC50 [5] | IC50 [6]
inactive: viability, T/C (second compound 0.00316 µM, first compound 0.00316 µM) 103% | viability, T/C (second compound 0.00316 µM, first compound 0.01 µM) 93.5% | viability, T/C (second compound 0.00316 µM, first compound 0.0316 µM) 101% | viability, T/C (second compound 0.00316 µM, first compound 0.1 µM) 99.1% | viability, T/C (second compound 0.00316 µM, first compound 0.316 µM) 101% | viability, T/C (second compound 0.00316 µM, first compound 1 µM) 82.8% | viability, T/C (second compound 0.01 µM, first compound 0.00316 µM) 98.9% | viability, T/C (second compound 0.01 µM, first compound 0.01 µM) 99.4% | viability, T/C (second compound 0.01 µM, first compound 0.0316 µM) 98.7% | viability, T/C (second compound 0.01 µM, first compound 0.1 µM) 101% | viability, T/C (second compound 0.01 µM, first compound 0.316 µM) 101% | viability, T/C (second compound 0.01 µM, first compound 1 µM) 92.2% | viability, T/C (second compound 0.0316 µM, first compound 0.00316 µM) 106% | viability, T/C (second compound 0.0316 µM, first compound 0.01 µM) 101% | viability, T/C (second compound 0.0316 µM, first compound 0.0316 µM) 92.9% | viability, T/C (second compound 0.0316 µM, first compound 0.1 µM) 107% | viability, T/C (second compound 0.0316 µM, first compound 0.316 µM) 107% | viability, T/C (second compound 0.0316 µM, first compound 1 µM) 82% | viability, T/C (second compound 0.1 µM, first compound 0.00316 µM) 110% | viability, T/C (second compound 0.1 µM, first compound 0.01 µM) 95% | viability, T/C (second compound 0.1 µM, first compound 0.0316 µM) 112% | viability, T/C (second compound 0.1 µM, first compound 0.1 µM) 97.7% | viability, T/C (second compound 0.1 µM, first compound 0.316 µM) 96.4% | viability, T/C (second compound 0.1 µM, first compound 1 µM) 99.6% | viability, T/C (second compound 0.316 µM, first compound 0.00316 µM) 112% | viability, T/C (second compound 0.316 µM, first compound 0.01 µM) 103% | viability, T/C (second compound 0.316 µM, first compound 0.0316 µM) 101% | viability, T/C (second compound 0.316 µM, first compound 0.1 µM) 107% | viability, T/C (second compound 0.316 µM, first compound 0.316 µM) 102% | viability, T/C (second compound 0.316 µM, first compound 1 µM) 89.1% | viability, T/C (second compound 1 µM, first compound 0.00316 µM) 98.4% | viability, T/C (second compound 1 µM, first compound 0.01 µM) 97.2% | viability, T/C (second compound 1 µM, first compound 0.0316 µM) 91.8% | viability, T/C (second compound 1 µM, first compound 0.1 µM) 94.5% | viability, T/C (second compound 1 µM, first compound 0.316 µM) 105% | viability, T/C (second compound 1 µM, first compound 1 µM) 78.8%

C#Cc1c(F)ccc2cc(O)cc(-c3ncc4c(N5CC6CCC(C5)N6)nc(OCC56CCCN5CC(F)C6)nc4c3F)c12 (stereo unspecified)
> 10000 nM: IC50 (compound alone, run of 09/09/2024)
inactive: viability, T/C (compound 0.0316 µM) 108% [middle of 8 runs] | viability, T/C (compound 0.1 µM) 109% [middle of 8 runs] | viability, T/C (compound 0.316 µM) 107% [middle of 8 runs] | viability, T/C (compound 1 µM) 112% [middle of 8 runs] | viability, T/C (compound 3.16 µM) 111% [middle of 8 runs] | viability, T/C (compound 10 µM) 110% [middle of 8 runs]
